The values that follow come from US11629171B2, “Beta-hairpin peptidomimetics” (POLYPHOR AG, priority 2017, dated 2023).

Format in all cases: cell-based
Data set [1] has as its system human red blood cells (hRBC). In words: Hemolysis. The note with it: red cells of human, 1 h, 200. The essentials:
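hRBC washed 4× in PBS; 200 μg/mL peptide + 20% (v/v) hRBC, 1 h, 37° C, 300 rpm. Spin, supernatant ~7.5-fold diluted, OD540 blank corrected. % hemolysis = OD540 peptide / OD540 Triton X-100 × 100.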

The subject of data set [2] is Klebsiella pneumoniae 968733. The settings on record: 968733. Put shortly: (§1)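 MIC in μg/mL, read as no visible growth after 18-20 hours at 35° C. Peptides were serially diluted two-fold in MH-II broth plus P-80 (0.002% final, v/v) and inoculated at about 10^6 CFU/mL following the CLSI broth microdilution standard.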
The next data set deals with Escherichia coli 926415. The note with it: 926415. Put shortly:
as §1

In data set [3] the test system is Pseudomonas aeruginosa ATCC 27853. The note with it: ATCC 27853. The essentials:
as §1

Data set [4] deals with Klebsiella pneumoniae SSI #3010. The note with it: SSI #3010. Put shortly: as §1
In data set [5] the test system is Acinetobacter baumannii 872842. The settings on record: 872842. The essentials: as §1
Data set [6] deals with Enterobacter cloacae 848840. The settings on record: 848840. The essentials:
as §1

Data set [7] relates to Acinetobacter baumannii DSM 30008. The note with it: DSM 30008. Put shortly: as §1
Data set [8] relates to Escherichia coli ATCC 25922. The note with it: ATCC 25922. Put shortly:
as §1

SMILES strings stand for the structures. Values after ≈ are worked out from the molar mass of the structure shown. Where a SMILES comes first, the peptide text is derived from it. Bridges are numbered along the chain shown (N, C = ends). Roman numbers before positions name the chains, in order. [ ]: non-standard residue; d: D form. Tle = CC(C)(C)[C@H](N)C(=O)O; dDab = NCC[C@@H](N)C(=O)O; Dab = NCC[C@H](N)C(=O)O; Dap = NC[C@H](N)C(=O)O; Mpa = O=C(O)CCS Where only a bound is given, the exact number is not on record here.

Consider `CC(=O)N[C@H]1CSSC[C@@H](C(N)=O)NC(=O)[C@H](CO)NC(=O)[C@H](C)NC(=O)[C@H](C(C)(C)C)NC(=O)[C@H](CO)NC(=O)[C@H](Cc2c[nH]c3ccccc23)NC(=O)[C@H](CO)NC(=O)[C@@H](CCN)NC(=O)[C@H](CCC(=O)N[C@@H](CCN)C(=O)N[C@H](C(=O)N[C@@H](CN)C(=O)N[C@H]2CCNC(=O)[C@H]([C@@H](C)O)NC(=O)[C@H](CCN)NC(=O)[C@H](CCN)NC(=O)[C@H](CC(C)C)NC(=O)[C@@H](CC(C)C)NC(=O)[C@H](CCN)NC2=O)[C@@H](C)O)NC(=O)[C@H](CN)NC(=O)[C@H](Cc2ccc(O)cc2)NC(=O)[C@H]([C@@H](C)O)NC(=O)[C@H](C(C)C)NC1=O` [Ex. 244] (I: Ac-CVTY[Dap]E[dDab]SWS[Tle]ASC-NH2 / II: [Dab]T[Dap][Dab][Dab][dL]L[Dab][Dab]T; disulfide I:1-I:14; amide I:6-II:N; lactam II:4-II:C), for which the “Hemolysis at 200 μg/mL” value in [1] came to 1%. Further, the MIC (as a rule, the lowest concentration found to suppress growth) in [2] is 0.0625 µg/mL (≈ 0.0243 µM); in the data set with Escherichia coli 926415, 0.125 µg/mL (≈ 0.0486 µM); in data set [3], 0.25 µg/mL (≈ 0.0972 µM); in data set [4], 0.0625 µg/mL (≈ 0.0243 µM); in data set [5] it was 0.0625 µg/mL (≈ 0.0243 µM); in data set [6] it was 0.0625 µg/mL (≈ 0.0243 µM). Besides, the MIC in data set [7] and in data set [8] was 0.03125 µg/mL (≈ 0.0122 µM) in each case.
For `CC(C)C[C@@H]1NC(=O)[C@@H](CC(C)C)NC(=O)[C@H](CCN)NC(=O)[C@@H](NC(=O)[C@H](CN)NC(=O)[C@@H](NC(=O)[C@H](CCN)NC(=O)CC[C@@H]2NC(=O)[C@H](CN)NC(=O)[C@H](Cc3ccc(O)cc3)NC(=O)[C@H]([C@@H](C)O)NC(=O)[C@H](C(C)C)NC(=O)CCSSC[C@@H](C(N)=O)NC(=O)[C@H](CO)NC(=O)[C@H](C)NC(=O)[C@H](C(C)(C)C)NC(=O)[C@H](CO)NC(=O)[C@H](Cc3c[nH]c4ccccc34)NC(=O)[C@H](CO)NC(=O)[C@@H](CCN)NC2=O)[C@@H](C)O)CCNC(=O)[C@H]([C@@H](C)O)NC(=O)[C@H](CCN)NC(=O)[C@H](CCN)NC1=O` [Ex. 245] (I: [Mpa]VTY[Dap]E[dDab]SWS[Tle]ASC-NH2 / II: [Dab]T[Dap][Dab][Dab][dL]L[Dab][Dab]T; disulfide I:1-I:14; amide I:6-II:N; lactam II:4-II:C), the “Hemolysis at 200 μg/mL” value in data set [1] amounted to 1%. Moreover, the MIC turned out to be 0.25 µg/mL (≈ 0.0994 µM) in data set [2]; 0.125 µg/mL (≈ 0.0497 µM) in the data set with Escherichia coli 926415; 0.25 µg/mL (≈ 0.0994 µM) in [3]; 0.125 µg/mL (≈ 0.0497 µM) in data set [4]; 0.0625 µg/mL (≈ 0.0249 µM) in data set [5]; 0.125 µg/mL (≈ 0.0497 µM) in [6]. For the same compound, the MIC in data set [7] was 0.03125 µg/mL (≈ 0.0124 µM); in data set [8] it was 0.0625 µg/mL (≈ 0.0249 µM).
Regarding `CC(=O)N[C@@H](CCN)C(=O)N[C@H](C(=O)N[C@H]1CSSC[C@@H](C(=O)N[C@H](C(=O)N[C@@H](C)C(=O)N[C@H](C(=O)N[C@@H](CCC(=O)O)C(N)=O)C(C)C)C(C)(C)C)NC(=O)[C@H](Cc2c[nH]c3ccccc23)NC(=O)[C@H](CO)NC(=O)[C@@H](CCN)NC(=O)[C@H](CCC(=O)N[C@@H](CCN)C(=O)N[C@H](C(=O)N[C@@H](CN)C(=O)N[C@H]2CCNC(=O)[C@H]([C@@H](C)O)NC(=O)[C@H](CCN)NC(=O)[C@H](CCN)NC(=O)[C@H](CC(C)C)NC(=O)[C@@H](CC(C)C)NC(=O)[C@H](CCN)NC2=O)[C@@H](C)O)NC(=O)[C@H](CN)NC(=O)[C@H](Cc2ccc(O)cc2)NC1=O)C(C)C` [Ex. 246] (I: Ac-[Dab]VCY[Dap]E[dDab]SWC[Tle]AVE-NH2 / II: [Dab]T[Dap][Dab][Dab][dL]L[Dab][Dab]T; disulfide I:3-I:10; amide I:6-II:N; lactam II:4-II:C), in data set [1], the “Hemolysis at 200 μg/mL” value is reported as less than 1%. The MIC stood at 4 µg/mL (≈ 1.52 µM) in data set [2]; 2 µg/mL (≈ 0.762 µM) against Escherichia coli 926415; 0.25 µg/mL (≈ 0.0953 µM) in [3]; 0.25 µg/mL (≈ 0.0953 µM) in [4]; 4 µg/mL (≈ 1.52 µM) in data set [5]; 2 µg/mL (≈ 0.762 µM) in data set [6]. The MIC amounted to 0.5 µg/mL (≈ 0.191 µM) in [7] and 0.25 µg/mL (≈ 0.0953 µM) in data set [8].
On to `CC(=O)N[C@@H](CCC(=O)O)C(=O)N[C@H](C(=O)N[C@H](C(=O)N[C@@H](Cc1ccc(O)cc1)C(=O)N[C@@H](CN)C(=O)N[C@@H](CCC(=O)N[C@@H](CCN)C(=O)N[C@H](C(=O)N[C@@H](CN)C(=O)N[C@H]1CCNC(=O)[C@H]([C@@H](C)O)NC(=O)[C@H](CCN)NC(=O)[C@H](CCN)NC(=O)[C@H](CC(C)C)NC(=O)[C@@H](CC(C)C)NC(=O)[C@H](CCN)NC1=O)[C@@H](C)O)C(=O)N[C@H](CCN)C(=O)N[C@@H](CCN)C(=O)N[C@@H](Cc1c[nH]c2ccccc12)C(=O)N[C@@H](CO)C(=O)N[C@H](C(=O)N[C@@H](C)C(=O)N[C@@H](CO)C(=O)N[C@@H](CCN)C(N)=O)C(C)(C)C)[C@@H](C)O)C(C)C` [Ex. 247] (I: Ac-EVTY[Dap]E[dDab][Dab]WS[Tle]AS[Dab]-NH2 / II: [Dab]T[Dap][Dab][Dab][dL]L[Dab][Dab]T; amide I:6-II:N; lactam II:4-II:C), for which the “Hemolysis at 200 μg/mL” value in [1] is on record as less than 1%. Further, the MIC came to 8 µg/mL (≈ 3.07 µM) in [2]; 0.5 µg/mL (≈ 0.192 µM) with Escherichia coli 926415; 0.25 µg/mL (≈ 0.0958 µM) in data set [3]; 0.25 µg/mL (≈ 0.0958 µM) in data set [4]; 0.5 µg/mL (≈ 0.192 µM) in data set [5]; 0.25 µg/mL (≈ 0.0958 µM) in data set [6]. Moreover, the MIC in data set [7] and in [8] was 0.125 µg/mL (≈ 0.0479 µM) each time.
As to `CC(=O)N[C@@H](CCN)C(=O)N[C@H](C(=O)N[C@H](C(=O)N[C@@H](Cc1ccc(O)cc1)C(=O)N[C@@H](CN)C(=O)N[C@@H](CCC(=O)N[C@@H](CCN)C(=O)N[C@H](C(=O)N[C@@H](CN)C(=O)N[C@H]1CCNC(=O)[C@H]([C@@H](C)O)NC(=O)[C@H](CCN)NC(=O)[C@H](CCN)NC(=O)[C@H](CC(C)C)NC(=O)[C@@H](CC(C)C)NC(=O)[C@H](CCN)NC1=O)[C@@H](C)O)C(=O)N[C@H](CCN)C(=O)N[C@@H](CCN)C(=O)N[C@@H](Cc1c[nH]c2ccccc12)C(=O)N[C@@H](CO)C(=O)N[C@H](C(=O)N[C@@H](C)C(=O)N[C@@H](CO)C(=O)N[C@@H](CCC(=O)O)C(N)=O)C(C)(C)C)[C@@H](C)O)C(C)C` [Ex. 248] (I: Ac-[Dab]VTY[Dap]E[dDab][Dab]WS[Tle]ASE-NH2 / II: [Dab]T[Dap][Dab][Dab][dL]L[Dab][Dab]T; amide I:6-II:N; lactam II:4-II:C), the “Hemolysis at 200 μg/mL” value in data set [1] is recorded as less than 1%. Also, the minimum inhibitory concentration (MIC) was determined as 4 µg/mL (≈ 1.53 µM) in [2]; 0.25 µg/mL (≈ 0.0958 µM) with Escherichia coli 926415; 0.25 µg/mL (≈ 0.0958 µM) in data set [3]; 0.125 µg/mL (≈ 0.0479 µM) in data set [4]; 1 µg/mL (≈ 0.383 µM) in [5]; 4 µg/mL (≈ 1.53 µM) in [6]. Further, the minimum inhibitory concentration (MIC) in data set [7] turned out to be 0.5 µg/mL (≈ 0.192 µM); in [8], 0.125 µg/mL (≈ 0.0479 µM).
